Experimental data: patent US9199946B2, “Pyrimidinone carboxamide inhibitors of endothelial lipase” (BRISTOL-MYERS SQUIBB COMPANY, priority 2012, dated 2015)
Like-named read-outs stand apart in the source and are kept apart here.

Molecular target: T1, Endothelial lipase (EL) (Homo sapiens, UniProt Q9Y5X9)
T1 construct: HT-1080 cells, which were transformed by RAGE technology (Athersys) to overexpress endogenous EL; endogenous in cells; conditioned medium used as the enzyme source
T1 sequence (Q9Y5X9 21-500): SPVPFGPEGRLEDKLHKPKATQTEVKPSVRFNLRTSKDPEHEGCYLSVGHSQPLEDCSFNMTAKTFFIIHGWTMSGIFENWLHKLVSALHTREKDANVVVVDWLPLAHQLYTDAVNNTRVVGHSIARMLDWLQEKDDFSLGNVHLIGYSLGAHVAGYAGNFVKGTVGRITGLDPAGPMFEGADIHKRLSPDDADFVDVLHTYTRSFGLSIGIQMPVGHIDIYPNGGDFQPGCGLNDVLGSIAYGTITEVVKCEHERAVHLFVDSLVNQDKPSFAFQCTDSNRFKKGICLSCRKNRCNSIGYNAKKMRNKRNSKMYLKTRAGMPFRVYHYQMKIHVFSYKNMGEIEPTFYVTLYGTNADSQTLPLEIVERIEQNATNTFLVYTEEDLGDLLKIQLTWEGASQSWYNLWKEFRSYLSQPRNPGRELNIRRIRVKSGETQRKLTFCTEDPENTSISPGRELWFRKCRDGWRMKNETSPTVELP
Experiment: Endothelial lipase (EL) enzymatic assay with fluorescent substrate A10070 in DMPG vesicles
Format: biochemical
Method: Endothelial lipase activity was measured using a fluorescent substrate, A10070, (Invitrogen, CA) doped into an artificial vesicle containing DMPG (Avanti Polar Lipids) as the excipient. Vesicles were prepared by combining 285 μL of 1 mM DMPG in a 1:1 mixture of MeOH and CHCl3 with 15 μL of 1 mM A10070 in a 1:1 mixture of MeOH and CHCl3. The mixture was dried under nitrogen and resuspended in 150 μL of 50 mM HEPES pH 8.0 buffer containing 100 mM NaCl and 0.2 mM EDTA. The sample was allowed to sit at rt for 15 min and then was sonicated 3×4 mins on ice with a Branson Sonicator using duty cycle 1. This preparation provides vesicles with a mole fraction of 0.05 for the FRET substrate.
The enzymatic assay was measured using white, opaque 96-well half area plates. Each well contained 60 μL of assay buffer (50 mM HEPES pH 8.0, 50 mM NaCl and 1 mM CaCl2) and 2 ul of a DMSO solution containing compound of interest. Conditioned media obtained from HT-1080 cells, which were transformed by RAGE technology (Athersys) to overexpress endogenous EL, was added and the reaction was allowed to incubate for 20 min at 37° C. with gentle agitation. The reaction was started by the addition of 20 μL of a 1:4 dilution of vesicles. The final total reaction volume was 100 μL. The reaction rates were measured on a Gemini plate reader with an excitation wavelength of 488 nm and an emission of 530 nm. Readings were taken every 20 seconds for 10 min with agitation between each reading. The slope of the linear portion of the readout was used to calculate the rate of the reaction.

[1] = conditioned media from HT-1080 cells overexpressing endogenous EL, 20 min preincubation at 37° C., read-out: EL IC50
[2] = range observed in the EL assay, read-out: EL IC50 values

| SMILES | IC50 [1] | IC50 [2] |
| --- | --- | --- |
| O=C(N[C@H]1CC[C@@H](c2ccccc2)CC1)c1[nH]c(=O)[nH]c(=O)c1NCCCn1ccnc1 [Example 216, 5-(3-(1H-imidazol-1-yl)propylamino)-2,6-dioxo-N-(cis-4-phenylcyclohexyl)-1,2,3,6-tetrahydropyrimidine-4-carboxamide] | 3.48 µM | ≤ 10 µM |
| Nc1c(C(=O)NC2CCN(c3nc(Br)nn3Cc3ccccc3)C2)[nH]c(=O)[nH]c1=O (centres unmarked) [Example 187, 5-amino-N-(1-(1-benzyl-3-bromo-1H 1,2,4-triazol-5-yl)pyrrolidin-3-yl)-2,6 dioxo-1,2,3,6-tetrahydropyrimidine-4 carboxamide] | 0.946 µM | ≤ 10 µM |
| O=C(NC1CCC(c2cnn(Cc3ccccc3)c2)C1)c1[nH]c(=O)[nH]c(=O)c1O (centres unmarked) [Example 283, N-(3-(1-benzyl-1H-pyrazol-4-yl)cyclopentyl)-5-hydroxy-2,6-dioxo-1,2,3,6-tetrahydropyrimidine-4-carboxamide] | – | ≤ 10 µM |
| CC(C)CNc1c(C(=O)N[C@H]2CC[C@@H](c3ccccc3)CC2)[nH]c(=O)[nH]c1=O [Example 206, 5-(isobutylamino)-2,6-dioxo-N-(cis-4-phenylcyclohexyl)-1,2,3,6-tetrahydropyrimidine-4-carboxamide] | – | ≤ 10 µM |
| O=C(O)Cn1c(=O)[nH]c(C(=O)N[C@H]2CC[C@@H](c3ccccc3)CC2)c(O)c1=O [Example 267, 2-(5-Hydroxy-2,6-dioxo-4-((cis-4-phenylcyclohexyl)carbamoyl)-2,3-dihydropyrimidin-1(6H)-yl)acetic acid] | 1.42 µM | ≤ 10 µM |
| O=C(N[C@H]1CC[C@@H](C(=O)N[C@@H]2CCCc3c(OCc4ccccc4)cccc32)C1)c1[nH]c(=O)[nH]c(=O)c1O [Example 263, N-((1S,3R)-3-((R)-5-(benzyloxy)-1,2,3,4-tetrahydronaphthalen-1-ylcarbamoyl)cyclopentyl)-5-hydroxy-2,6-dioxo-1,2,3,6-tetrahydropyrimidine-4-carboxamide] | – | ≤ 10 µM |
| Nc1c(C(=O)N[C@H]2CC[C@@H](c3ccccc3)C2)[nH]c(=O)[nH]c1=O [Example 78, 5-amino-2,6-dioxo-N-((1S,3R)-3-phenylcyclopentyl)-1,2,3,6-tetrahydropyrimidine-4-carboxamide] | – | ≤ 10 µM |
| Nc1c(C(=O)N[C@@H]2CCc3ccc(C(F)(F)F)cc32)[nH]c(=O)[nH]c1=O [Example 1, (R)-5-Amino-2,6-dioxo-N-(6-(trifluoromethyl)-2,3-dihydro-1H-inden-1-yl)-1,2,3,6-tetrahydropyrimidine-4-carboxamide] | – | ≤ 10 µM |
| Nc1c(C(=O)N[C@@H]2CC[C@@H](c3ccc(Cl)c(Cl)c3)C2)[nH]c(=O)[nH]c1=O [Example 68, 5-amino-N-((1R,3R)-3-(3,4-dichlorophenyl)cyclopentyl)-2,6-dioxo-1,2,3,6-tetrahydropyrimidine-4-carboxamide] | – | ≤ 10 µM |
| Nc1c(C(=O)N[C@@H]2CC[C@@H](C(=O)N[C@H]3CCCc4ccccc43)C2)[nH]c(=O)[nH]c1=O [Example 146, 5-amino-2,6-dioxo-N-((1R,3R)-3-((S)-1,2,3,4-tetrahydronaphthalen-1-ylcarbamoyl)cyclopentyl)-1,2,3,6-tetrahydropyrimidine-4-carboxamide] | – | ≤ 10 µM |
| Nc1c(C(=O)N[C@H]2CC[C@@H](c3ccccc3)CC2)n(-c2cc(F)cc(C(F)(F)F)c2)c(=O)[nH]c1=O [Example 203, 5-Amino-3-(3-fluoro-5-(trifluoromethyl)phenyl)-2,6-dioxo-N-(cis-4-phenylcyclohexyl)-1,2,3,6-tetrahydropyrimidine-4-carboxamide] | 6.22 µM | ≤ 10 µM |
| O=C(N[C@@H]1CC[C@@H](c2ccccc2)C1)c1[nH]c(=O)[nH]c(=O)c1O [Example 272, 5-hydroxy-2,6-dioxo-N-((1R,3R)-3-phenylcyclopentyl)-1,2,3,6-tetrahydropyrimidine-4-carboxamide] | – | ≤ 10 µM |
| CCOC(=O)N1CCC(NC(=O)c2[nH]c(=O)[nH]c(=O)c2N)c2ccccc21 (racemic) [Example 25, ethyl 4-(5-amino-2,6-dioxo-1,2,3,6-tetrahydropyrimidine-4-carboxamido)-3,4-dihydroqiiinoline-1(2H)-carboxylate] | 1.06 µM | ≤ 10 µM |
| CN(C)c1cccc(-c2ccc([C@@H]3CC[C@H](NC(=O)c4[nH]c(=O)[nH]c(=O)c4N)C3)cc2)c1 [Example 166, 5-amino-N-((1S,3R)-3-(3′-(dimethylamino)biphenyl-4-yl)cyclopentyl)-2,6-dioxo-1,2,3,6-tetrahydropyrimidine-4-carboxamide] | – | ≤ 10 µM |
| Nc1c(C(=O)N[C@H]2CC[C@H](c3ccccc3)C2)[nH]c(=O)[nH]c1=O [Example 76, 5-amino-2,6-dioxo-N-((1S,3S)-3-phenylcyclopentyl)-1,2,3,6-tetrahydropyrimidine-4-carboxamide] | – | ≤ 10 µM |
| Nc1c(C(=O)N[C@H]2CC[C@@H](c3nc(-c4ccc(Cl)c(Cl)c4)no3)CC2)[nH]c(=O)[nH]c1=O [Example 48, 5-amino-N-(cis-4-(3-(3,4-dichlorophenyl)-1,2,4-oxadiazol-5-yl)cyclohexyl)-2,6-dioxo-1,2,3,6-tetrahydropyrimidine-4-carboxamide] | 0.447 µM | ≤ 10 µM |
| O=C(N[C@H]1CC[C@@H](c2ccccc2)CC1)c1[nH]c(=O)n(CCO)c(=O)c1O [Example 269, 5-Hydroxy-1-(2-hydroxyethyl)-2,6-dioxo-N-(cis-4-phenylcyclohexyl)-1,2,3,6-tetrahydropyrimidine-4-carboxamide] | – | ≤ 10 µM |
| O=C(N[C@H]1CC[C@@H](c2ccccc2)CC1)c1[nH]c(=O)n(CCC(F)(F)F)c(=O)c1O [Example 252, 5-hydroxy-2,6-dioxo-N-((1s,4s)-4-phenylcyclohexyl)-1-(3,3,3-trifluoropropyl)-1,2,3,6-tetrahydropyrimidine-4-carboxamide] | – | ≤ 10 µM |
| O=C(N[C@H]1CC[C@@H](NC(=O)c2[nH]c(=O)[nH]c(=O)c2O)CC1)c1ccccc1 [Example 260, N-((1s,4s)-4-benzamidocyclohexyl)-5-hydroxy-2,6-dioxo-1,2,3,6-tetrahydropyrimidine-4-carboxamide] | – | ≤ 10 µM |
| COc1cccc2c1C[C@H](NC(=O)c1[nH]c(=O)[nH]c(=O)c1N)CC2 [Example 110, (R)-5-amino-N-(8-methoxy-1,2,3,4-tetrahydronaphthalen-2-yl)-2,6-dioxo-1,2,3,6-tetrahydropyrimidine-4-carboxamide] | – | ≤ 10 µM |
| O=C(N[C@@H]1CC[C@@H](C(=O)N[C@H]2CC[C@@H](c3ccccc3)CC2)C1)c1[nH]c(=O)[nH]c(=O)c1O [Example 297, 5-hydroxy-2,6-dioxo-N-((1R,3R)-3-((1s,4S)-4-phenylcyclohexylcarbamoyl)cyclopentyl)-1,2,3,6-tetrahydropyrimidine-4-carboxamide] | – | ≤ 10 µM |
| Nc1c(C(=O)N[C@H]2CC[C@@H](OCc3ccccc3)CC2)[nH]c(=O)[nH]c1=O [Example 95, 5-amino-N-(cis-4-(benzyloxy)cyclohexyl)-2,6-dioxo-1,2,3,6-tetrahydropyrimidine-4-carboxamide] | – | ≤ 10 µM |
| Nc1c(C(=O)N[C@@H]2CC[C@@H](C(=O)Nc3cnn(Cc4ccccc4)c3)C2)[nH]c(=O)[nH]c1=O [Example 149, 5-amino-N-((1R,3R)-3-(1-benzyl-1H-pyrazol-4-ylcarbamoyl)cyclopentyl)-2,6-dioxo-1,2,3,6-tetrahydropyrimidine-4-carboxamide] | – | ≤ 10 µM |
| COc1ccc(-c2ccc([C@@H]3CC[C@H](NC(=O)c4[nH]c(=O)[nH]c(=O)c4N)C3)cc2)cc1OC [Example 161, 5-amino-N-((1S,3R)-3-(3′,4′-dimethoxybiphenyl-4-yl)cyclopentyl)-2,6-dioxo-1,2,3,6-tetrahydropyrimidine-4-carboxamide] | – | ≤ 10 µM |
| Nc1c(C(=O)NC2CCN(c3ncccc3Cl)C2)[nH]c(=O)[nH]c1=O (centres unmarked) [Example 186, 5-amino-N-(1-(3-chloropyridin-2-yl)pyrrolidin-3-yl)-2,6-dioxo-1,2,3,6-tetrahydropyrimidine-4-carboxamide] | 0.042 µM | ≤ 10 µM |
